In experiment [1] the test system is hemopoietic stem cells (bone marrow cells). The experiment in a line: CSF-induced proliferation of hemopoietic stem cells. Conditions: Bone marrow cell, 168 h. The class given is cell-based, mice. On the procedure: Bone marrow cells are flushed out of the femur of mice. 10^5 cells are incubated in McCoy 5A medium (0.3% agar) together with recombinant murine GM-CSF (Genzyme; parent cell colony formation) and the substances (10^−4 to 100 μg/ml) at 37° C. and 7% CO2. 7 days later, the colonies (<50 cells) and clusters (17–50 cells) are counted.

In the next experiment the test system is SW480. The experiment in a line: Growth inhibition test (MTT), cytotoxic action on tumour cell lines. Conditions: Homo sapiens, SW480, 144 h, read-out: IC50 values of the cytotoxic action on tumour cell lines, SW480. The class given is cell-based. On the procedure:
(§1) The human large intestine cell lines SW 480 and HT29 (ATCC No. CCL 228 and HTB38), the human breast cell lines MDA-MB 231, MCF-7 and BT20 (ATCC No. HTB-, 26, 22 and 23) and the mouse melanoma cell line B16F 10 (CRL 6475) were grown to confluence in Roux dishes in RPMI 1640 medium with addition of 10% FCS. They were then trypsinized and taken up in RPMI plus 10% FCS to a cell count of 50,000 cells or, for B16F10, 20,000 cells per ml. 100 μl of cell suspension/well were added to a 96 microwell plate and incubated at 37° C. for 1 day in a CO2 incubator. A further 100 μl of RPMI medium and 1 μl of DMSO were then added with the test substances. The growth was checked after day 6. For this, 25 μl of MTT solution (3-(4,5-dimethylthiazol-2-yl)-2,5-diphenyltetrazolium bromide) was added to each well at a starting concentration of 5 mg/ml of H2O. The plate was incubated at 37° C. for 5 hours in a CO2 incubator. The medium was then aspirated and 100 μl of i-propanol/well were added. After shaking with 100 μl of H2O for 30 min, the extinction was measured at 595-nm using a Multiplate Reader (BIO-RAD 3550-UV).
(§2) The cytostatic action is indicated in Table 2 as an IC50 value, in each case for the individual cell lines.

The test system of a further experiment is HT 29. Described as above. Type of experiment: cell-based. Conditions: Homo sapiens, HT-29, 144 h, read-out: IC50 values of the cytotoxic action on tumour cell lines, HT 29. On the procedure: as §1, §2
In another experiment the test system is BT20. The experiment is described as above. Type of experiment: cell-based. Conditions: Homo sapiens, BT-20, 144 h, read-out: IC50 values of the cytotoxic action on tumour cell lines, BT20. On the procedure:
as §1, §2

For the next experiment, the system named is MCF7. Described as above. Type of experiment: cell-based. Conditions: Homo sapiens, MCF7, 144 h, read-out: IC50 values of the cytotoxic action on tumour cell lines, MCF7. On the procedure:
as §1, §2

The test system of another experiment is B16F10. Described as above. Conditions: Mus musculus, B16-F10, 144 h, read-out: IC50 values of the cytotoxic action on tumour cell lines, B16F10. The class given is cell-based. On the procedure: as §1, §2
Another experiment deals with MDA-MB 231. Described as above. Type of experiment: cell-based. Conditions: Homo sapiens, MDA-MB-231, 144 h, read-out: IC50 values of the cytotoxic action on tumour cell lines, MDA-MB 231. On the procedure: as §1, §2
For experiment [2], the target named is T1, αvβ3 receptor (αvβ3 from human A375 cells) (Homo sapiens, UniProt P05106+P06756).
T1 construct: αvβ3 from human A375 cells was purified analogously to a procedure which was described by Wong et al; endogenous in cells; host or cells: human A375 cells; the receptor was purified from the cells and used detergent-solubilised (n-octyl-glucopyranoside)
T1 sequence (P06756 31-889 limits assumed): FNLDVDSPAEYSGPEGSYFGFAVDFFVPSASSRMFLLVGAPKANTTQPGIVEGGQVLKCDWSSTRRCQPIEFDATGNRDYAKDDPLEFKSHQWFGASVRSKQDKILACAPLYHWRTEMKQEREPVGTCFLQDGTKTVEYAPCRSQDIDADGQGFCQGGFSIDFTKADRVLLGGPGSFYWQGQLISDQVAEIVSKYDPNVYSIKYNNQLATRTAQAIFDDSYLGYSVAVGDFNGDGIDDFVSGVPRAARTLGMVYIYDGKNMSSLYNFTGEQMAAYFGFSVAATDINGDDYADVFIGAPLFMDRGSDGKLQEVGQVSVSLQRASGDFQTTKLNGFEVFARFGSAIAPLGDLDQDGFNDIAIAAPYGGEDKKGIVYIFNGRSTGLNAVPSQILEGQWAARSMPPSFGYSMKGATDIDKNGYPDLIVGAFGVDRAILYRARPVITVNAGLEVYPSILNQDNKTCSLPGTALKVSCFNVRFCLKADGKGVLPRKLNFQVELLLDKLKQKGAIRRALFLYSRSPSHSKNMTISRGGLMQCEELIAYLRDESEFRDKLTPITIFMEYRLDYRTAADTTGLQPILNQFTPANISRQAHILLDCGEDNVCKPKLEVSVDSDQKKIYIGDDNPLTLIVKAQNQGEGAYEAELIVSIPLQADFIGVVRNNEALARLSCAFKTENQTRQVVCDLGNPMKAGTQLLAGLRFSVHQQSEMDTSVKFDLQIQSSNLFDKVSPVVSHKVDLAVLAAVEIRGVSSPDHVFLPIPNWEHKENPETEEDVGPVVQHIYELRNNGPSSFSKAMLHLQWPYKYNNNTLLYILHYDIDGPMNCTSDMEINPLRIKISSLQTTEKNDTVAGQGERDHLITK
T1 sequence (P06756 891-1048 partner limits assumed): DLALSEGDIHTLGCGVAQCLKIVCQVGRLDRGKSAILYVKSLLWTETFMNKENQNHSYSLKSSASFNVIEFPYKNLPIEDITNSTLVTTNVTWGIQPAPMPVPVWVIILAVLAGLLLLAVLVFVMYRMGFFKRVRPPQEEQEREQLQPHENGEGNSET
T1 sequence (P05106 27-788): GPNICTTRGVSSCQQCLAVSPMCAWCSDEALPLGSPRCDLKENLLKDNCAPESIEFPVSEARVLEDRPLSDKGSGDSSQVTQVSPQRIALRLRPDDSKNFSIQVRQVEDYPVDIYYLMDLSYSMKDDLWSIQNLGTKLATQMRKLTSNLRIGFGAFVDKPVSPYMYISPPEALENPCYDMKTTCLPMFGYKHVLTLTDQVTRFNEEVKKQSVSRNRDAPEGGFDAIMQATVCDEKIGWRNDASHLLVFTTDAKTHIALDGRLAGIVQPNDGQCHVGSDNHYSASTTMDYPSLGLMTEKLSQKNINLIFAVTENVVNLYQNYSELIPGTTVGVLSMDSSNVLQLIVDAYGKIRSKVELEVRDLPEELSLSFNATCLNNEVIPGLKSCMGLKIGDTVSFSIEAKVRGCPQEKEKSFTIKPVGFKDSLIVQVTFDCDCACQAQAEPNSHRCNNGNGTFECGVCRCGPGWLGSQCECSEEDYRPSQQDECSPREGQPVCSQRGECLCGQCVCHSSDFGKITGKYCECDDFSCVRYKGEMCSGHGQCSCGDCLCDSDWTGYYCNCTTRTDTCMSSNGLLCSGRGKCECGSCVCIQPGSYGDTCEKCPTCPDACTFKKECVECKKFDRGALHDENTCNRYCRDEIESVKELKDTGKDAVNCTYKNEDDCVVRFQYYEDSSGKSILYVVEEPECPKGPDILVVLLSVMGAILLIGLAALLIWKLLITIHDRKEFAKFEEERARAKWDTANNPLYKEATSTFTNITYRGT
Kind of experiment: αvβ3 binding test (echistatin displacement, WGA SPA beads). On the procedure: αvβ3 from human A375 cells was purified analogously to a procedure which was described by Wong et al. (Molecular Pharmacology, 50, 529–537 (1996)). In each case, 10 μl of αvβ3 (5 ng) in TBS pH 7.6, 2 mM CaCl2, 1 mM MgCl2, 1% n-octyl-glucopyranoside (Sigma); 10 μl of test substance in TBS pH 7.6, 0.1% DMSO and 45 μl of TBS pH 7.6, 2 mM CaCl2, 1 mM MgCl2, 1 mM MnCl2 were incubated at room temperature for 1 h. In each case, 25 μl of WGA SPA beads (Amersham, 4 mg/ml) and 10 μl of echistatin ([…], Amersham, chloramine-T labelled) were then added. After 16 hours at room temperature, the samples were measured in a scintillation measuring apparatus (Wallac 1450).

Where [3] appears, read: αvβ3 purified from human A375 cells, labelled echistatin, read-out: IC50 values of the binding to the αvβ3 receptor.
[4] abbreviates: Mus musculus, read-out: IC50, CSF-induced proliferation of hemopoietic stem cells, mouse bone marrow cells, recombinant murine GM-CSF, 7 days, colony count.

Like-named read-outs stand apart in the source and are kept apart here.

Regarding `CC[C@@]1(O)C(=O)OCc2c1cc1n(c2=O)Cc2cc3ccccc3nc2-1` [Camptothecin, 20(S)-Camptothecin, reference compound], in experiment [1] (mouse bone marrow cells, recombinant murine GM-CSF, 7 days, colony count, read-out: IC50, CSF-induced proliferation of hemopoietic stem cells), the IC50 turned out to be 0.3 ng/mL.

`CC[C@@]1(OC(=O)[C@@H](NC(=O)[C@H](Cc2cnc[nH]2)NC(=S)Nc2ccc(CC(NS(=O)(=O)c3cc(-c4cccc(NC(=O)Nc5nc6ccccc6[nH]5)c4)ccc3OC)C(=O)O)cc2)C(C)C)C(=O)OCc2c1cc1n(c2=O)Cc2cc3ccccc3nc2-1` (stereo partly shown) [Example 3.7]: the IC50 with SW480 was 400 nM; in the experiment with HT 29, 200 nM; in the experiment with BT20 it was 600 nM; in the experiment with MCF7, 400 nM; in the experiment on B16F10, 800 nM; in the experiment with MDA-MB 231, 300 nM. This compound yielded an IC50 in experiment [2] of 111 nM.

`CC[C@@]1(OC(=O)[C@@H](NC(=O)[C@H](Cc2cnc[nH]2)NC(=S)Nc2ccc(CC(NS(=O)(=O)c3cccc(-c4cccc(NC(=O)Nc5nc6ccccc6[nH]5)c4)c3)C(=O)O)cc2)C(C)C)C(=O)OCc2c1cc1n(c2=O)Cc2cc3ccccc3nc2-1` (stereo partly shown) [Example 3.9]: the IC50 was determined as 400 nM in the experiment on SW480; 60 nM in the experiment with HT 29; 500 nM with BT20; 150 nM with MCF7; 1000 nM in the experiment with B16F10; 60 nM in the experiment on MDA-MB 231. In experiment [2], this compound gave an IC50 of 220 nM.

For the compound `CCCNC(=O)Nc1cccc(-c2ccc(CC(NS(=O)(=O)c3cccc(NC(=S)N[C@@H](Cc4c[nH]cn4)C(=O)N[C@H](C(=O)O[C@]4(CC)C(=O)OCc5c4cc4n(c5=O)Cc5cc6ccccc6nc5-4)C(C)C)c3)C(=O)O)cc2)c1` (stereo partly shown) [Example 3.10], the IC50 was 300 nM in the experiment with SW480; 350 nM in the experiment on HT 29; 400 nM in the experiment with BT20; 200 nM in the experiment on MCF7; 800 nM in the experiment with B16F10; 200 nM with MDA-MB 231. Besides, in experiment [2] (setting [3]), the IC50 came to 154 nM.

For `CC[C@@]1(OC(=O)[C@@H](NC(=O)C(Cc2c[nH]cn2)NC(=S)Nc2ccc(CC(NS(=O)(=O)c3ccc(-c4cccc(NC(=O)Nc5nc6ccccc6[nH]5)c4)cc3)C(=O)O)cc2)C(C)C)C(=O)OCc2c1cc1n(c2=O)Cc2cc3ccccc3nc2-1` (stereo partly shown) [Example 3.11], the IC50 in the experiment with SW480 was determined as 600 nM; in the experiment with HT 29 it was 300 nM; in the experiment with BT20, 500 nM; with MCF7, 250 nM; in the experiment on B16F10, 600 nM; in the experiment with MDA-MB 231 it was 400 nM. For the same compound, the IC50 in experiment [2] amounted to 97 nM.

Take `CCCNC(=O)Nc1cccc(S(=O)(=O)Nc2cccc(C(CC(=O)O)NS(=O)(=O)c3ccc(NC(=S)N[C@@H](Cc4c[nH]cn4)C(=O)N[C@H](C(=O)O[C@]4(CC)C(=O)OCc5c4cc4n(c5=O)Cc5cc6ccccc6nc5-4)C(C)C)cc3)c2)c1` (stereo partly shown) [Example 3.12]: the IC50 came out at 300 nM with SW480; 150 nM in the experiment on HT 29; 150 nM in the experiment on BT20; 100 nM with MCF7; 250 nM in the experiment with B16F10; 150 nM in the experiment on MDA-MB 231. This compound had an IC50 in experiment [2] of 390 nM.

Regarding `CCCNC(=O)Nc1cccc(-c2ccc(CC(NC(=O)N[C@H](C(=O)O[C@]3(CC)C(=O)OCc4c3cc3n(c4=O)Cc4cc5ccccc5nc4-3)C(C)C)C(=O)O)cc2)c1` (stereo partly shown) [Example 3.14], the IC50 with SW480 came to 150 nM; with HT 29, 100 nM; in the experiment with BT20, 100 nM; with MCF7, 80 nM; in the experiment with B16F10, 200 nM; in the experiment on MDA-MB 231 it was 150 nM. For the same compound, the IC50 in experiment [2] (setting [3]) stood at 21 nM.

As for `CCCNC(=O)Nc1cccc(-c2ccc(CC(NC(=S)Nc3cccc4nc5c(cc34)Cn3c-5cc4c(c3=O)COC(=O)[C@]4(O)CC)C(=O)O)cc2)c1` (stereo partly shown) [Example 3.15], the IC50 in the experiment with SW480 amounted to 200 nM; in the experiment on HT 29, 200 nM; in the experiment with BT20 it was 2000 nM; in the experiment on MCF7, 300 nM; with B16F10, 6000 nM; in the experiment on MDA-MB 231 it was 200 nM. The IC50 in experiment [2] (setting [3]) worked out at 61 nM.

For `CCCNC(=O)Nc1cccc(S(=O)(=O)Nc2cccc(C(CC(=O)O)NC(=S)Nc3cccc4nc5c(cc34)Cn3c-5cc4c(c3=O)COC(=O)[C@]4(O)CC)c2)c1` (stereo partly shown) [Example 3.16], the IC50 in the experiment on SW480 is 500 nM; in the experiment on HT 29 it was 100 nM; in the experiment with BT20, 700 nM; in the experiment on MCF7 it was 300 nM; in the experiment on B16F10 it was 1000 nM; in the experiment with MDA-MB 231, 1000 nM. Also, the IC50 in experiment [2] (setting [3]) came out at 51 nM.

In the case of `CC[C@@]1(OC(=O)CCC(=O)NC(CC(=O)O)c2cccc(NS(=O)(=O)c3cccc(NC(=N)N)c3)c2)C(=O)OCc2c1cc1n(c2=O)Cc2cc3ccccc3nc2-1` (stereo partly shown) [Example 3.18], the IC50 with SW480 was found to be 300 nM; with HT 29 it was 180 nM; in the experiment with BT20, 900 nM; with MCF7, 600 nM; in the experiment on B16F10, 1000 nM; in the experiment with MDA-MB 231, 500 nM. The compound also displayed an IC50 in experiment [2] of 79 nM.

In the case of `CC[C@@]1(OC(=O)[C@@H](NC(=O)CNC(=O)CCCC(=O)NC(CC(=O)O)c2cccc(NS(=O)(=O)c3cccc(NC(=N)N)c3)c2)C(C)C)C(=O)OCc2c1cc1n(c2=O)Cc2cc3ccccc3nc2-1` (stereo partly shown) [Example 3.19], the IC50 in the experiment with SW480 came out at 1500 nM; with HT 29 it was 500 nM; in the experiment with BT20, 4000 nM; in the experiment with MCF7, 5000 nM; with B16F10 it was 6000 nM; with MDA-MB 231, 2000 nM. Moreover, the IC50 in experiment [2] (setting [3]) was found to be 48 nM.

Take `CCCNC(=O)Nc1cccc(S(=O)(=O)Nc2cccc(C(CC(=O)O)NC(=O)CCCC(=O)NCC(=O)N[C@@H](CC(C)C)C(=O)O[C@]3(CC)C(=O)OCc4c3cc3n(c4=O)Cc4cc5ccccc5nc4-3)c2)c1` (stereo partly shown) [Example 3.20]: the IC50 in experiment [2] (setting [3]) came to 265 nM; in experiment [1] (setting [4]) it was 100 ng/mL.

Consider `CCCNC(=O)Nc1cccc(S(=O)(=O)Nc2cccc(C(CC(=O)O)NC(=O)CCCC(=O)N[C@@H](CC(C)C)C(=O)NCC(=O)N[C@@H](CC(C)C)C(=O)O[C@]3(CC)C(=O)OCc4c3cc3n(c4=O)Cc4cc5ccccc5nc4-3)c2)c1` (stereo partly shown) [Example 3.21], for which the figures for the IC50 in experiment [2] (setting [3]) and in experiment [1] (setting [4]) were 549 nM and 80 ng/mL, respectively.

As for `CCCNC(=O)Nc1cccc(S(=O)(=O)Nc2cccc(C(CC(=O)O)NC(=O)CCCC(=O)NCC(=O)N[C@@H](CC(C)C)C(=O)N[C@H](C(=O)O[C@]3(CC)C(=O)OCc4c3cc3n(c4=O)Cc4cc5ccccc5nc4-3)C(C)C)c2)c1` (stereo partly shown) [Example 3.22], the results for the IC50 in experiment [2] (setting [3]) and in experiment [1] (setting [4]) were 531 nM and 6 ng/mL, respectively.

Take `CCCNC(=O)Nc1cccc(S(=O)(=O)Nc2cccc(C(CC(=O)O)NC(=O)CCCC(=O)N3CCC[C@H]3C(=O)N[C@@H](CC(C)C)C(=O)NCC(=O)N[C@@H](CC(C)C)C(=O)O[C@]3(CC)C(=O)OCc4c3cc3n(c4=O)Cc4cc5ccccc5nc4-3)c2)c1` (stereo partly shown) [Example 3.23]: the IC50 in experiment [2] turned out to be 355 nM; in experiment [1] (setting [4]), 6 ng/mL.

The record behind these values is patent US7220824B1, “Integrin-mediated drug targeting” (Bayer Aktiengesellschaft, priority 2000, dated 2007).
